Measured values taken from patent publication US20250325469A1, “Inhibitors of atp synthase - cosmetic and therapeutic uses” (priority 2021, published 2025).

Assays:
[1] = tested on: MDA-MB-231/ATCC; experiment: NCI one-dose (10 μM) testing, MDA-MB-231/ATCC; type: cell-based
Procedure: (§1) (1E) 8a and 8b NCI one-dose (10 μM) test results side by side. % cancer growth inhibition >100 means there are less cancer cells at experiment end than beginning (i.e. cancer killing activity), =200=all cancer cells dead at experiment end. The observed pattern of 8a vs. 8b activity is hard to explain. One would expect one stereoisomer to have greater or equal activity than the other. […] Moreover, for one cancer cell line (NCI-H322M), 8a has no activity, yet 8b does.

[2] = tested on: cancer cell lines of the NCI-60 assay; experiment: NCI-60 five-dose in vitro assay; type: cell-based; settings: at 10 μM in 5-dose testing
Procedure: The present figure, herein, is a summary figure of that data (corresponding to FIG. 16K in the aforementioned Canadian application). Mean G150 for 8b and 8a is 3.09 and 2.85 μM respectively. […] In the 8a case, this GI50 is lower/better than 65% of 102 FDA approved cancer drugs in [112]. A salt of 8a. e.g. 8a HCl, is likely to have an even lower G150 in NCI five-dose testing.
The Pearson correlation coefficient between 8a activity in 1-dose (10 μM) and at 10 μM in 5-dose NCI-60 testing: R=0.4544 p=0.00034. The Pearson correlation coefficient between 8b activity in 1-dose (10 μM) and at 10 μM in 5-dose NCI-60 testing: R=0.6156, p<0.00001. […] So, this isn't unexpected. Not wishing to be bound by theory, in 5-dose NCI-60 testing, why 8a has a lower mean GI50 than 8b will now be explained. […] Except for the cancer cell lines that 8b exerted much more activity than 8a at in 1-dose testing, wherein the increased activity of 8a can't completely make up the deficit and overtake the activity of 8b.

[3] = tested on: cancer cell lines of the NCI-60 assay; experiment: NCI one-dose (10 μM) NCI-60 testing; type: cell-based; settings: for inhibition at 10 µM: 1-dose testing; for anti-cancer activity: NCI-60 anti-cancer testing in vitro
Procedure: FIG. 1: Chiral supercritical fluid chromatography (SFC) was used to separate the shown racemate into its component R and S stereoisomers and two samples of opposite >97% enantiomeric excess (ee) was achieved: termed 8a and 8b respectively. 8a and 8b differ from 6a and 6b because they have methyl (Me, CH3), instead of hydrogen (H), upon their chiral carbon. 8a and 8b were independently tested in NCI one-dose (10 μM) testing: their results are shown in FIGS. (1B) and (1C) respectively.
as §1

[4] = tested on: NCI-H322M; experiment: NCI one-dose (10 μM) testing, NCI-H322M; type: cell-based
Procedure: as §1

[5] = rectal temperature and activity of mice administered compound; type: in vivo, mouse
Procedure: Hypoactivity of mouse, after being administered compound 6b, was because 6b caused the mouse's body temperature to drop towards its ambient temperature (22° C.). When ambient equals optimal body temperature (37° C.), 6b cannot reduce body temperature and cannot cause hypoactivity. In some embodiments, the hypoactivity/sedation aspect to a compound(s) of this disclosure is utilized for therapy. The intersection between drug dose and ambient temperature dictates how much the body temperature falls and thence the depth of the sedation. Larger drug dose, and/or lower ambient temperature, causes deeper sedation (e.g. useful for inducing anaesthesia, pre-anaesthesia, post-anaesthesia, hypoesthesia, sedation, coma, tranquilization, behavioural submission, muscle relaxation and/or treating/ameliorating/preventing/combating insomnia, fatal insomnia, sleep onset latency, delayed sleep phase disorder, exploding head syndrome, parasomnia, sleep-maintenance insomnia, sleep disorder etc.; repeated/continuous administration, e.g. repeated i.v. injections or continuous i.v. infusion, of a compound(s) of this disclosure can sedate a subject for an extended period of time). Smaller drug dose, and/or higher ambient temperature, causes lighter sedation (e.g. useful for anti-anxiety, anti-depression, hyperactivity etc.). At ambient≥optimal body temperature (37° C.), no sedation occurs. […]

[6] = tested on: F1F0 ATP hydrolysis; settings: [8, 109]; cited from earlier work
[7] = molecular target: T1, F1F0 ATP hydrolysis (Bos taurus, UniProt P00829+P19483); settings: cited from earlier work; for IC50: IF1 protein depleted SMPs from Bos taurus, pH 6.7, 37° C. [142]
T1 construct: IF1 protein depleted Sub-Mitochondrial Particles (SMPs) from Bos taurus; from tissue; host or cells: sub-mitochondrial particles from Bos taurus, endogenous IF1 removed

[8] = tested on: cells; settings: each attached to the cargo sequence by introduced cysteines and a disulphide bond; cited from earlier work
[9] = tested on: A498; experiment: NCI one-dose (10 μM) testing, A498; type: cell-based
Procedure: as §1

[10] = read-out: Mean % cancer growth inhibition
[11] = read-out: Median % cancer growth inhibition

C[C@](Cn1ccnc1)(N/C(=N/C(=O)c1cccc(C#N)c1)Nc1ccc(Cl)cc1)c1ccc(Cl)cc1Cl [Compound 8b]
Δ % cancer growth inhibition, 8b greater than 8a [1]: 85.34%
inhibition at 10 µM [2, 10]: 99.4%
inhibition at 10 µM [2, 11]: 93%
inhibition at 10 µM [3, 10]: 76.5%
inhibition at 10 µM [3, 11]: 77%
anti-cancer activity [3]: greater anti-cancer activity than 8a
anti-cancer activity [4]: does

N#Cc1cccc(C(=O)/N=C(\Nc2ccc(Cl)cc2)N[C@H](Cn2ccnc2)c2ccc(Cl)cc2Cl)c1 [Compound 6b]
anti-cancer activity [3]: anti-cancer activity
rectal temperature ([5]; ambient room temperature 22° C., dose dependent): reduces its rectal temperature towards the ambient room temperature
hypoactivity ([5]; ambient temperature 22° C.): hypoactivity
ability to inhibit/reduce F1F0 ATP hydrolysis [6]: can potently inhibit/reduce F1F0 ATP hydrolysis

Bos taurus IF1 protein: Bos taurus IF1 protein recombinantly produced in E. Coli
IC50 [7]: 34 nM

1-60: Bos taurus IF1 protein fragment, residues 1-60 (GSESGDNVRSSAGAVRDAGGAFGKREQAEEERYFRARAKEQLAALKKHHENEISHHAKEI; UniProt P01096 26-85, looked up, fragment) [Compound 1-60]
IC50 [7]: 19 nM

N#Cc1cccc(C(=O)/N=C(\Nc2ccc(Cl)cc2)N[C@@H](Cn2ccnc2)c2ccc(Cl)cc2Cl)c1 [Compound 6a]
anti-cancer activity [3]: anti-cancer activity
ability to inhibit/reduce F1F0 ATP hydrolysis [6]: cannot

RRRRRRR (Cell Penetrating Peptide (CPP) sequence) [Compound R7, heptamer of L-arginine residues, cell penetrating peptide]
cellular penetration compared with Tat or penetratin [8]: twice as good

C[C@@](Cn1ccnc1)(N/C(=N/C(=O)c1cccc(C#N)c1)Nc1ccc(Cl)cc1)c1ccc(Cl)cc1Cl [Compound 8a]
Δ % cancer growth inhibition, 8a greater than 8b [9]: 38.57
inhibition at 10 µM [2, 10]: 103%
inhibition at 10 µM [2, 11]: 95%
inhibition at 10 µM [3, 10]: 60.3%
inhibition at 10 µM [3, 11]: 59.8%
anti-cancer activity [4]: no activity

10-46: Bovine IF1 protein fragment, residues 10-46 (SSAGAVRDAGGAFGKREQAEEERYFRARAKEQLAALK; UniProt P01096 35-71, looked up, fragment) [Compound 10-46]
inhibitory activity ([7]; bovine IF1 protein fragments, FIG. 10I legend [142, 144]): ten-fold less activity than 10-47

10-47: Bos taurus IF1 protein fragment, residues 10-47, mature numbering (SSAGAVRDAGGAFGKREQAEEERYFRARAKEQLAALKK; UniProt P01096 35-72, looked up, fragment) [Compound 10-47]
IC50 [7]: 45 nM

[2H][C@@](Cn1ccnc1)(N/C(=N/C(=O)c1cccc(C#N)c1)Nc1ccc(Cl)cc1)c1ccc(Cl)cc1Cl [Compound 7a]
anti-cancer activity [3]: less anti-cancer activity than 6a

1-56: Bos taurus IF1 protein fragment, residues 1-56 (GSESGDNVRSSAGAVRDAGGAFGKREQAEEERYFRARAKEQLAALKKHHENEISHH; UniProt P01096 26-81, looked up, fragment) [Compound 1-56]
IC50 [7]: 32 nM
